Test system: HBsAg
Test: HBsAg assay (chemiluminescence immunoassay of secreted HBsAg in HepG2.2.15 culture supernatant)
Type: cell-based, HBV
Settings: HepG2.2.15 cells, CLIA kit
Protocol: HepG2.2.15 cells (Acs et al. Proc Natl Acad Sci USA, 84, (1987), 4641-4), a constitutively HBV-expressing cell line were cultured in DMEM+Glutamax-I medium (Invitrogen, Carlsbad, Calif., USA), supplemented with 10% fetal bovine serum (Invitrogen) and G418 (Invitrogen) at a final concentration of 200 mg/L and maintained in 5% CO2 at 37° C.
HepG2.2.15 cells were seeded in duplicate into white, 96-well plates at 1.5×10^4 cells/well. The cells were treated with a three-fold serial dilution series of the compounds in DMSO. The final DMSO concentration in all wells was 1% and DMSO was used as no drug control.
The HBsAg chemiluminescence immunoassay (CLIA) kit (Autobio Diagnostics Co., Zhengzhou, China, Catalog number: CL0310-2) was used to measure the levels of secreted HBV antigens semi-quantitatively. For the detection 50 μL/well culture supernatant was used and HBsAg was quantified using HBsAg chemiluminescence immunoassay (CLIA) kit (Autobio Diagnostics Co., Zhengzhou, China, Catalog number: CL0310-2), 50 μL of the supernatant was transferred to the CLIA assay plate and 50 μL of enzyme conjugate reagent was added into each well. The plates were sealed and gently agitated for 1 hour at room temperature. The supernatant-enzyme-mixture was discarded and wells were washed 6 times with 300 μL of PBS. The residual liquid was removed by plating the CLIA plate right side down on absorbent tissue paper. 25 μL of substrates A and B were added to each well. Luminance was measured using a luminometer (Mithras LB 940 Multimode Microplate Reader) after 10 minutes incubation. Dose-response curves were generated and the IC50 value was extrapolated by using the E-WorkBook Suite (ID Business Solutions Ltd., Guildford, UK).
The compounds of the present invention were tested for their capacity to inhibit HBsAg as described herein.

[1] = Hepatitis B virus, HepG2.2.15, HBsAg secretion reduced by 50% vs no drug control
[2] = HBsAg secretion reduced by 50% vs no drug control

## CC[C@@H]1[C@@H](C)c2cc(OCCOC)c(Cl)cc2-c2cc(=O)c(C(=O)O)cn21 (relative stereo) [Example 212A, (6R*, 7S*)-10-chloro-6-ethyl-9-(2-methoxyethoxy)-7-methyl-2-oxo-6,7-dihydrobenzo[a]quinolizine-3-carboxylic acid]
[1]
  IC50: 330 nM

## CC[C@@H]1[C@H](C)c2cc(OCCOC)c(Cl)cc2-c2cc(=O)c(C(=O)O)cn21 (relative stereo) [Example 212B, (6R*,7R*)-10-chloro-6-ethyl-9-(2-methoxyethoxy)-7-methyl-2-oxo-6,7-dihydrobenzo[a]quinolizine-3-carboxylic acid]
[1]
  IC50: 29 nM

## CCC1Cc2cc(OCc3ccccc3)c(OC)cc2-c2cc(=O)c(C(=O)O)cn21 (single isomer, unassigned; (+)) [Example 9, (+)-9-benzyloxy-6-ethyl-10-methoxy-2-oxo-6,7-dihydrobenzo[a]quinolizine-3-carboxylic acid]
[2]
  IC50: 15 nM

## CCC1Cc2cc(OCC(C)(C)CO)c(OC)cc2-c2cc(=O)c(C(=O)O)cn21 (single isomer, unassigned; (+)) [Example 23, (+)-6-ethyl-9-(3-hydroxy-2,2-dimethyl-propoxy)-10-methoxy-2-oxo-6,7-dihydrobenzo[a]quinolizine-3-carboxylic acid]
[2]
  IC50: 12 nM

## CCC1Cc2cc(OCCOC)c(OC)cc2-c2cc(=O)c(C(=O)O)cn21 (single isomer, unassigned; (+)) [Example 28, (+)-6-ethyl-10-methoxy-9-(2-methoxyethoxy)-2-oxo-6,7-dihydrobenzo[a]quinolizine-3-carboxylic acid]
[2]
  IC50: 29 nM

## CCC1Cc2cc(OCC3CC3)c(OC)cc2-c2cc(=O)c(C(=O)O)cn21 (single isomer, unassigned; (+)) [Example 31, (+)-9-(cyclopropylmethoxy)-6-ethyl-10-methoxy-2-oxo-6,7-dihydrobenzo[a]quinolizine-3-carboxylic acid]
[2]
  IC50: 9 nM

## CCC1Cc2cc(OCC(C)C)c(OC)cc2-c2cc(=O)c(C(=O)O)cn21 (single isomer, unassigned; (+)) [Example 34, (+)-6-ethyl-9-isobutoxy-10-methoxy-2-oxo-6,7-dihydrobenzo[a]quinolizine-3-carboxylic acid]
[2]
  IC50: 4 nM

## CCOc1cc2c(cc1OC)-c1cc(=O)c(C(=O)O)cn1C(CC)C2 (single isomer, unassigned; (+)) [Example 37, (+)-9-ethoxy-6-ethyl-10-methoxy-2-oxo-6,7-dihydrobenzo[a]quinolizine-3-carboxylic acid]
[2]
  IC50: 8 nM

## CCC1Cc2cc(OCCCOC)c(OC)cc2-c2cc(=O)c(C(=O)O)cn21 (single isomer, unassigned; (+)) [Example 40, (+)-6-ethyl-10-methoxy-9-(3-methoxypropoxy)-2-oxo-6,7-dihydrobenzo[a]quinolizine-3-carboxylic acid]
[2]
  IC50: 13 nM

## CCOCCOc1cc2c(cc1OC)-c1cc(=O)c(C(=O)O)cn1C(CC)C2 (single isomer, unassigned; (+)) [Example 43, (+)-9-(2-ethoxyethoxy)-6-ethyl-10-methoxy-2-oxo-6,7-dihydrobenzo[a]quinolizine-3-carboxylic acid]
[2]
  IC50: 46 nM

## CCC1Cc2cc(OCC(F)F)c(OC)cc2-c2cc(=O)c(C(=O)O)cn21 (single isomer, unassigned; (+)) [Example 46, (+)-9-(2,2-difluoroethoxy)-6-ethyl-10-methoxy-2-oxo-6,7-dihydrobenzo[a]quinolizine-3-carboxylic acid]
[2]
  IC50: 44 nM

## CCC1Cc2cc(OCC3CCOCC3)c(OC)cc2-c2cc(=O)c(C(=O)O)cn21 (single isomer, unassigned; (+)) [Example 49, (+)-6-ethyl-10-methoxy-2-oxo-9-(tetrahydropyran-4-ylmethoxy)-6,7-dihydrobenzo[a]quinolizine-3-carboxylic acid]
[2]
  IC50: 15 nM

## COc1cc2c(cc1OC)-c1cc(=O)c(C(=O)O)cn1C(C)C2 (single isomer, unassigned; (+)) [Example 67, (+)-9,10-dimethoxy-6-methyl-2-oxo-6,7-dihydrobenzo[a]quinolizine-3-carboxylic acid]
[2]
  IC50: 380 nM

— US9458153B2, “Dihydroquinolizinones for the treatment and prophylaxis of hepatitis B virus infection” (Hoffmann-La Roche Inc., priority 2014, dated 2016)
